In patent EP4667500A1, “FRUCTOOLIGOSACCHARIDE DERIVATIVES AND USES THEREOF” (Biopract GmbH, priority 2024, dated 2025):

Tested on: pancreatic enzymes
Experiment: Stability in simulated small intestine (pancreatic hydrolysis), released substituent acid detected by HPLC
Assay type: in vitro ADME
Conditions: incubation in simulated intestinal environment
Description: The compounds analysed are esters between primary or secondary alcohols and fatty acids. In the stomach, the influence of the pH value and its chemical effect is decisive. The stability of the molecules there depends mainly on the nature of the bond. This is the same for all the molecules analysed. […] In contrast, hydrolysis in the small intestine is enzymatically catalysed and the stability can vary greatly between the molecules studied. The work on stability was therefore focussed on pancreatic hydrolysis.
The synthesised ester compounds consisted of a fructooligosaccharide scaffold of the inulin or levan type, to which substituent molecules were bound via an ester bond. Organic acids, predominantly butyric acid, and also propionic acid, acetic acid, succinic acid and benzoic acid served as substituents. The study consisted of incubating the substances in a simulated intestinal environment, followed by the detection of the substituent acid present and, if applicable, released by means of HPLC. Tributyrin was used as a positive control according to the literature.

CCCC(=O)OCC(COC(=O)CCC)OC(=O)CCC [Tributyrin]
stability under the test conditions of the simulated small intestine: largely hydrolysed
